One test relates to M207. Description: CellTiter-Glo cell viability, M207. Type of test: cell-based. How it is done: (§1) To determine if MI-181 had broad anti-cancer activity, we treated a diverse panel of cancer cell lines including cervical adenocarcinoma (HeLa), breast adenocarcinoma (MCF7), melanoma (M233), osteosarcoma (U205), acute lymphoblastic leukemia (CCRF-CEM), non-small cell lung carcinoma (NCI-H460), and breast adenocarcinoma (MCF7) with MI-181 and determined its cell viability IC50 (FIGS. 13A and 13B). […] Therefore, the efficacy of MI-181 was analyzed in a panel of melanoma cell lines with defined genetic backgrounds including BRAF^V600E and NRAS^Q61L mutations and varied sensitivities to Vemurafenib (BRAF inhibitor) and Trametinib (MEK inhibitor), which are currently used to treat BRAF^V600E melanomas^43,44 (FIG. 10c). […] As a general trend BRAF^V600E cell lines were slightly more sensitive than NRAS^Q61L cell lines and MI-181 was effective in Vemurafenib and Trametinib resistant cell lines (FIG. 10c and Table 3). Finally, we tested the ability of MI-181 to inhibit melanoma colony formation using the M233 and M308 cell lines (both resistant to Vemurafenib). Indeed, MI-181 was a potent inhibitor of colony formation (percentage colony formation for 10 nM MI-181=0.2±0.1 and 0.8±0.7; for 10 nM colchicine=0.1±0.06 and 1.5±0.5; and for 10 nM Vemurafenib=94±7 and 102±5) (FIG. 10d). Thus, MI-181 is a potent inhibitor of melanoma cell lines. […]

A further test has as its system M375. Description: CellTiter-Glo cell viability, M375. The format is cell-based. How it is done:
as §1

The test system of the next test is M230. Description: CellTiter-Glo cell viability, M230. The format is cell-based. How it is done:
as §1

In another test the test system is M229. Description: CellTiter-Glo cell viability, M229. The format is cell-based. How it is done: as §1
In general terms: In ATP-based viability assays light output follows the ATP content of the culture.

Test [1] deals with M308. In words: Melanoma colony formation, M308. Type of test: cell-based. The conditions noted are these: 10 nM, M308 (second value of pair). How it is done: (§2) To determine if MI-181 had broad anti-cancer activity, we treated a diverse panel of cancer cell lines including cervical adenocarcinoma (HeLa), breast adenocarcinoma (MCF7), melanoma (M233), osteosarcoma (U205), acute lymphoblastic leukemia (CCRF-CEM), non-small cell lung carcinoma (NCI-H460), and breast adenocarcinoma (MCF7) with MI-181 and determined its cell viability IC50 (FIGS. 13A and 13B). […] Therefore, the efficacy of MI-181 was analyzed in a panel of melanoma cell lines with defined genetic backgrounds including BRAF^V600E and NRAS^Q61L mutations and varied sensitivities to Vemurafenib (BRAF inhibitor) and Trametinib (MEK inhibitor), which are currently used to treat BRAF^V600E melanomas^43,44 (FIG. 10c). […] As a general trend BRAF^V600E cell lines were slightly more sensitive than NRAS^Q61L cell lines and MI-181 was effective in Vemurafenib and Trametinib resistant cell lines (FIG. 10c and Table 3). Finally, we tested the ability of MI-181 to inhibit melanoma colony formation using the M233 and M308 cell lines (both resistant to Vemurafenib). Indeed, MI-181 was a potent inhibitor of colony formation (percentage colony formation for 10 nM MI-181=0.2±0.1 and 0.8±0.7; for 10 nM colchicine=0.1±0.06 and 1.5±0.5; and for 10 nM Vemurafenib=94±7 and 102±5) (FIG. 10d). Thus, MI-181 is a potent inhibitor of melanoma cell lines.

The test system of another test is M202. In words: CellTiter-Glo cell viability, M202. The format is cell-based. How it is done:
as §1

In another test the test system is M368. Description: CellTiter-Glo cell viability, M368. Type of test: cell-based. How it is done: as §1
The subject of a further test is M395. Description: CellTiter-Glo cell viability, M395. Type of test: cell-based. How it is done: as §1
For test [2], the system named is breast adenocarcinoma (MCF7). Description: Cell viability, MCF7. To be noted: Homo sapiens; MCF7 cells. The format is cell-based. How it is done: as §1
The next test has as its system M318. In words: CellTiter-Glo cell viability, M318. The format is cell-based. How it is done: as §1
The test system of a further test is M244. Description: CellTiter-Glo cell viability, M244. The format is cell-based. How it is done:
as §1

For a further test, the system named is M376. Description: CellTiter-Glo cell viability, M376. The format is cell-based. How it is done: as §1
Test [3] concerns M308. In words: CellTiter-Glo cell viability, M308. Type of test: cell-based. How it is done:
as §1

The test system of test [4] is panel of melanoma cell lines. Description: Cell viability in a panel of melanoma cell lines. The format is cell-based. To be noted: melanoma cell lines incl. BRAF V600E and NRAS Q61L mutations; read-out: IC50 across melanoma panel. How it is done: as §1
The target in another test is T1, tubulin (Sus scrofa, UniProt P02554).
T1 construct: purchased Cytoskeleton Inc. BK011P
Description: In vitro tubulin polymerization assay (HTS-tubulin polymerization kit, Cytoskeleton). The conditions noted are these: 3 μM compound, fluorescence, 70 minutes at 37° C. The format is biochemical. How it is done:
1.5 ul of 10× strength compound, 20 μl of tubulin solution and Triton X-100 at a final concentration of 0.01% were added to each well in a 384 well plate. The reactions were assembled on ice to prevent tubulin pre-polymerization. For kinetic measurements, microtubule polymerization was monitored by reading the fluorescence at 420 nm (due to the incorporation of a fluorescent reporter into microtubules as polymerization occurs) every ten seconds using a Tecan M1000 microplate reader (FIG. 6B). […] Fluorescence increased as polymerization occurred, due to the incorporation of 4′,6-diamidino-2-phenylindole. Fluorescence was monitored every minute for 70 minutes at 37° C.
Tubulin polymerization reactions were carried out according to the manufacturer (Cytoskeleton, BK011P) in the presence of 3 μM colchicine, MI-181, taxol or DMSO. Polymerization was monitored with a Tecan M1000 micro-plate reader at 420 nm for 70 minutes at 37° C. The results are depicted in FIG. 11.

A further test concerns M233. In words: Melanoma colony formation, M233. The conditions noted are these: 10 nM, M233 (first value of pair). Type of test: cell-based. How it is done:
as §2

Another test deals with melanoma (M233). Description: CellTiter-Glo cell viability, M233. Type of test: cell-based. How it is done: as §1

The text below walks through data of US10913750B2, “Tubulin-binding compounds, compositions and uses related thereto” (The Regents of the University of California, priority 2015, dated 2021).

As usually defined, the IC50 is the midpoint of a concentration-inhibition curve.

Structures are written as SMILES.

T1 sequence (P02554 whole entry): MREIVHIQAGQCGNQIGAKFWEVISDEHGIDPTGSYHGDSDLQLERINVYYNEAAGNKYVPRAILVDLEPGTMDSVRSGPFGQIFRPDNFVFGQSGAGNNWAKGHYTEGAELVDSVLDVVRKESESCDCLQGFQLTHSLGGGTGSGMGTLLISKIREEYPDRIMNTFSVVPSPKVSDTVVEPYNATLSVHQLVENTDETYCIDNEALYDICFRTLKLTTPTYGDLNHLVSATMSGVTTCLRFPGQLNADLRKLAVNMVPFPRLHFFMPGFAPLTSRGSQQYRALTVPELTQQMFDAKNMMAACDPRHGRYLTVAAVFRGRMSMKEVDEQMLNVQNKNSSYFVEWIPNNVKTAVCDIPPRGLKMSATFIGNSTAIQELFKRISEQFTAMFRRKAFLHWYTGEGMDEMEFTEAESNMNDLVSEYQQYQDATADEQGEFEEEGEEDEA
T1 sequence (P02550 whole entry partner): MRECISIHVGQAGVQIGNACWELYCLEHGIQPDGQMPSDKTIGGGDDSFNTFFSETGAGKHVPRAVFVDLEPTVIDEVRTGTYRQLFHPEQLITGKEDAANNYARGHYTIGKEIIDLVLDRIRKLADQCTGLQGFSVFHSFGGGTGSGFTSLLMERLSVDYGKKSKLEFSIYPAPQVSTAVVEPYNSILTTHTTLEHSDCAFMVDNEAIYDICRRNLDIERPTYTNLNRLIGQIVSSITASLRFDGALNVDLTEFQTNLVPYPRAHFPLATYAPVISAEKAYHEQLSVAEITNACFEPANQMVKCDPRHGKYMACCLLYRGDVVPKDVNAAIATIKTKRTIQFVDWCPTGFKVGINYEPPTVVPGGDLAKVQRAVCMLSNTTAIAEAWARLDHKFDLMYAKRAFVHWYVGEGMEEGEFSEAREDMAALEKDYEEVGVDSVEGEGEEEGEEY

`Cc1cc2nc(/C=C/c3cccnc3)sc2cc1C` [MI-181]: the IC50 is 41.7 nM in the test on M207; 58.2 nM with M375; 42 nM in the test on M230; 36.7 nM in the test on M229; 88.3 nM in the test with M202; 42.1 nM in the test on M368. Further, the half-inhibitory concentration (IC50) is 23.4 nM in the test with M395; 11000 nM in test [2]; 54.9 nM in the test on M318; 41.5 nM with M244; 39.7 nM with M376; 28.3 nM in the test with M308 [3]. Besides, the IC50 in test [4] was 18 to 90 nM; in the test with melanoma (M233) it was 24.4 nM. Further, the percentage colony formation is on record as 0.8±0.7 in the test on M308 [1] and 0.2±0.1 with M233. For the same compound, the “inhibition of microtubule (tubulin) polymerization in vitro” value against tubulin was “inhibits tubulin polymerization”.
